# In patent US20200277268A1, “PENTAFLUOROPHENYL SULFONAMIDE COMPOUNDS, COMPOSITIONS AND USES THEREOF” (DALRIADA THERAPEUTICS INC., priority 2017, published 2020):
# pIC50: −log10 of the molar value. Entries after “also recorded” stand apart in the source; their conditions may differ.
# How the values were obtained:
# MV4-11 = assay: CellTiter-Blue cell viability, MV4-11; type: cell-based; details: Homo sapiens, MV4-11
# Experimental: (§1) The anti-cancer efficacy of exemplary compounds of the application were assessed in vitro against different cancer cell lines. Cell viability was examined following treatment at various concentrations of inhibitor (0.097656-50 μM) using a CellTiter-Blue® cell viability assay. 1×10^4 cells/well were plated in 96-well assay plates in culture medium. All cells were grown in DMEM, IMDM and RPMI-1640 supplemented with 10% fetal bovine serum (FBS). In some instances, FBS was removed for periods ranging from 16-24 hours, and re-introduced with test compound addition. After 24 hrs, test compounds and vehicle controls were added to appropriate wells such that the final volume was 100 μl in each well. The cells were cultured for the desired test exposure period (72 hours) at 37° C. and 5% CO2. The assay plates were removed from 3° C. incubator and 20 μl/well of CellTiter-Blue® Reagent was added. The plates were incubated using standard cell culture conditions for 1-4 hours. Afterwards, the plates were shaken for 10 seconds and florescence was recorded at 560/590 nm using a Cytation 3 spectrophotometer. IC50 values were determined using non-linear regression analysis with GraphPad Prism 6.0 (GraphPad Software Inc.).
# MOLM13 = assay: CellTiter-Blue cell viability, MOLM13; type: cell-based; details: Homo sapiens, MOLM-13
# Experimental: as §1
# [1] = system: healthy human lung cells (MRC9); assay: CellTiter-Blue cell viability, MRC9; type: cell-based; details: non-cancerous, 72 hours
# Experimental: as §1
# U87MG = assay: Cell viability, glioblastoma U87MG; type: cell-based; details: Homo sapiens, U-87 MG; glioblastoma cell line
# Experimental: as §1, with “Cell viability was examined following treatment at various concentrations of inhibitor (0.097656-50 μM) using a CellTiter-Blue® cell viability assay.” left out, “All cells were grown in DMEM, IMDM and RPMI-1640 supplemented with 10% fetal bovine serum (FBS).” left out
# D458 = assay: Cell viability, medulloblastoma D458; type: cell-based; details: medulloblastoma cell line
# Experimental: as §1, with “Inc.). […]” for “Inc.).”
# MOLM14 = assay: Cell viability, AML MOLM14; type: cell-based; details: Homo sapiens, MOLM-14, Table 4
# Experimental: as §1, with “Inc.). […]” for “Inc.).”
# PL-21 = assay: Cell viability, AML PL-21; type: cell-based; details: Table 4
# Experimental: as §1, with “Inc.). […]” for “Inc.).”
# OCI-AML3 = assay: Cell viability, AML OCI-AML3; type: cell-based; details: Homo sapiens, OCI-AML-3, Table 4
# Experimental: as §1, with “Inc.). […]” for “Inc.).”
# AR230 = assay: Cell viability, CML AR230; type: cell-based; details: Table 4
# Experimental: as §1, with “Inc.). […]” for “Inc.).”
# tubulin = assay: Tubulin polymerization assay; type: biochemical; details: 10 μM compound, optical density 340 nm
# bromodomains = assay: BROMOscan bromodomain screen (DiscoverX); type: binding; details: 10 μM
# Experimental: T7 phage strains displaying bromodomains were grown in parallel in 24-well blocks in an E. coli host derived from the BL21 strain. E. coli were grown to log-phase and infected with T7 phage from a frozen stock (multiplicity of infection=0.4) and incubated with shaking at 32° C. until lysis (90-150 minutes). The lysates were centrifuged (5,000×g) and filtered (0.2 μm) to remove cell debris. […] The liganded beads were blocked with excess biotin and washed with blocking buffer (SeaBlock (Pierce), 1% BSA, 0.05 Tween 20, 1 mM DTT) to remove unbound ligand and to reduce non-specific phage binding. […] Test compounds were prepared as 1000× stocks in 100% DMSO and subsequently diluted 1:25 in monoethylene glycol (MEG). The compounds were then diluted directly into the assays such that the final concentrations of DMSO and MEG were 0.1% and 2.4%, respectively. All reactions were performed in polypropylene 384-well plates in a final volume of 0.02 ml. […] The bromodomain concentration in the eluates was measured by qPCR.
# I-1 test compound was tested at 10 μM, and results for primary screen binding interactions are reported as ‘% Ctrl,’ where lower numbers indicate stronger hits in the matrix. % Ctrl is calculated with the following formula:
# test compound=I-1 negative control=DMSO (100% Ctrl) positive control=control compound (0% Ctrl)
# hERG channel = hERG channel (Homo sapiens, UniProt Q12809); assay: cell-based
# [2] = Stability to glutathione, half-life by 19F NMR
# hERG channel, sequence (Q12809 whole entry): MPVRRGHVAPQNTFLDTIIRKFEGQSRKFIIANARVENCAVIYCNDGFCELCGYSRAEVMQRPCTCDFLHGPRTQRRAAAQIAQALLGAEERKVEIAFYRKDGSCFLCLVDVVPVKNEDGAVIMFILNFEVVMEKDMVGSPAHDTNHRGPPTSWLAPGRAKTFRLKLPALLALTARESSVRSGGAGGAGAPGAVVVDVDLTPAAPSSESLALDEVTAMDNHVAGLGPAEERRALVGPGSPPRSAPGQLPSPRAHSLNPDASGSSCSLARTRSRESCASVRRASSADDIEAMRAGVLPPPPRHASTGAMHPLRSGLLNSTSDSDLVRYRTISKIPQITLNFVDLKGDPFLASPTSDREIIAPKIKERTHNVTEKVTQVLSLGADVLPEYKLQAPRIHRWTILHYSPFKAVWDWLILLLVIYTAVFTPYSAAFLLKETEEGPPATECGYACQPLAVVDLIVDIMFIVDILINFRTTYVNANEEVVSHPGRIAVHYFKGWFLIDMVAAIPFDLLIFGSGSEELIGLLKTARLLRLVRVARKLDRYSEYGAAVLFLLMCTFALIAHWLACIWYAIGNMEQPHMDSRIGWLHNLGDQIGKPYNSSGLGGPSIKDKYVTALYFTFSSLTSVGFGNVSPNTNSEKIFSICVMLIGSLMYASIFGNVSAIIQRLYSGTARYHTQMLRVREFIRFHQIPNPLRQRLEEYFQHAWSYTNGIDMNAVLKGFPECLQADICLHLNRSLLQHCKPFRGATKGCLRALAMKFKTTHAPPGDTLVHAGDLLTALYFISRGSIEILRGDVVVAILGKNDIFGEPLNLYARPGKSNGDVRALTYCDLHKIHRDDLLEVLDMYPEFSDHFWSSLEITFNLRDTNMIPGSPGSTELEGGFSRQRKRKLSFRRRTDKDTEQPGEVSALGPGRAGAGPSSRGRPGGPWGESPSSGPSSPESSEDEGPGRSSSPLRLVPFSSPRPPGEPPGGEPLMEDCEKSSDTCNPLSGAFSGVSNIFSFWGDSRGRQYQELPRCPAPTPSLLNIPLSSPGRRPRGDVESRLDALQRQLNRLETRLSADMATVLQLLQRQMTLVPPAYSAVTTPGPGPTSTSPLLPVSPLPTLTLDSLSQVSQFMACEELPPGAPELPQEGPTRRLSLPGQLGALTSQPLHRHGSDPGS
compound,measurement,setting,value
"O=S(=O)(c1c(F)c(F)c(F)c(F)c1F)N(Cc1ccc(F)cc1)C1CC1 [Compound I-1, N-cyclopropyl-2,3,4,5,6-pentafluoro-N-(4-fluorobenzyl)benzenesulfonamide]",pIC50,"MV4-11; AML cell line, 72 hours",6.33
same,pIC50,"MV4-11; AML, Table 4",6.22
same,pIC50,"MOLM13; AML cell line, 72 hours",5.82
same,pIC50,"MOLM13; AML, Table 4",5.60
same,pIC50,[1],4.60
same,pIC50,U87MG,5.54
same,pIC50,D458,5.66
same,pIC50,MOLM14,5.60 to 5.77
same,pIC50,PL-21,5.46
same,pIC50,OCI-AML3,5.25
same,pIC50,AR230,5.39
same,inhibition of tubulin polymerization,tubulin,Negligible inhibition; also recorded: no significant inhibitory action
same,competitive binding / inhibition of 32 bromodomain targets,bromodomains,negligible competitive binding; also recorded: does not inhibit
same,pIC50,hERG channel,4.76
same,increase in T1/2 as compared to Batabulin,[2],greater than 7 fold
